Entries after “also recorded” stand apart in the source; their conditions may differ.
Columns and labels:
[1] = cited from earlier work
Human DPP III = target: T1, Human DPP III (Homo sapiens, UniProt Q9NY33); assay: Degradation by DPP III (HPLC of reaction products); type: in vitro ADME; settings: 100 μM peptide, 1.0 μg human DPP III, 2 hours at 37° C., HPLC UV 220 nm
T1 sequence (Q9NY33 1-737): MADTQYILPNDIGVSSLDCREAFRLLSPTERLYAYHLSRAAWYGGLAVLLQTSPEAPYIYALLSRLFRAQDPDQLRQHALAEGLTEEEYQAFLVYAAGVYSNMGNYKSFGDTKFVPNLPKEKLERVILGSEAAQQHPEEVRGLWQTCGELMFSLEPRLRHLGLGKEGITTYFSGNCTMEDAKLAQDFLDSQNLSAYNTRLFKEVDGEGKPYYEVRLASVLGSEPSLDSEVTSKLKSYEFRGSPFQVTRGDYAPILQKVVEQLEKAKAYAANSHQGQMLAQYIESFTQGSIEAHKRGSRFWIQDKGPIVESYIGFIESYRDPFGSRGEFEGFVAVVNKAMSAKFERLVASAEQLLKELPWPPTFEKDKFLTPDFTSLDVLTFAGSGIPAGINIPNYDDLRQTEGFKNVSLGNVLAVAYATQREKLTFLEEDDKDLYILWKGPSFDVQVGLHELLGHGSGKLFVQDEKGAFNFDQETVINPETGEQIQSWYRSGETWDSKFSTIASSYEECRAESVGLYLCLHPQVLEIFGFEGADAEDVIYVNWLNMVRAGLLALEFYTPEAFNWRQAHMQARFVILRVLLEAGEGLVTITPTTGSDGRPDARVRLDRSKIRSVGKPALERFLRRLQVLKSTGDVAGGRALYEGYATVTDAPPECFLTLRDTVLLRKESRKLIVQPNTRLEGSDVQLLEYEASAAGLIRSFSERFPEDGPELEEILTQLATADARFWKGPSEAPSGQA
Protocol: (§1) FIGS. 3A-5D show graphs depicting enzymatic digestion by dipeptidyl peptidase III (DPE III) of Ang-(1-7), Ang-(1-7)-ACCA^5, Ang-(1-7)-ACCA^6, and Ang-(1-7)-ACCA^3, respectively, in accordance with one aspect. The peptides (100 μM) were incubated with human DPE III (1.0 μg) in reaction buffer for 2 hours at 37° C. in a final volume of 100 μL, and the reaction products assessed by HPLC (UV 220 nm).
The Ang-(1-7) and the analogs Ang-(1-7)-ACCA^5, Ang-(1-7)-ACCA^6, and Ang-(1-7)-ACCA^3 were assessed to determine whether they were resistant to metabolism by the enzyme dipeptidyl peptidase III (DPP III). DPP III metabolizes Ang-(1-7) at different sites as compared to ACE (Chappell et al., Front Endocrinol (Lausanne) 4:201 (pp. 1-13) (2014)). The incubation conditions and detection methods for the metabolism by DPP III were identical to that used to assess degradation by ACE as described in Example 3.

human ACE = human ACE (Homo sapiens, UniProt P12821); assay: Degradation by ACE (HPLC of reaction products); type: in vitro ADME; settings: 100 μM peptide, 1.0 μg human ACE, reaction buffer pH 7.4, 2 hours at 37° C., HPLC UV 220 nm
Chain of human ACE (P12821 30-1306): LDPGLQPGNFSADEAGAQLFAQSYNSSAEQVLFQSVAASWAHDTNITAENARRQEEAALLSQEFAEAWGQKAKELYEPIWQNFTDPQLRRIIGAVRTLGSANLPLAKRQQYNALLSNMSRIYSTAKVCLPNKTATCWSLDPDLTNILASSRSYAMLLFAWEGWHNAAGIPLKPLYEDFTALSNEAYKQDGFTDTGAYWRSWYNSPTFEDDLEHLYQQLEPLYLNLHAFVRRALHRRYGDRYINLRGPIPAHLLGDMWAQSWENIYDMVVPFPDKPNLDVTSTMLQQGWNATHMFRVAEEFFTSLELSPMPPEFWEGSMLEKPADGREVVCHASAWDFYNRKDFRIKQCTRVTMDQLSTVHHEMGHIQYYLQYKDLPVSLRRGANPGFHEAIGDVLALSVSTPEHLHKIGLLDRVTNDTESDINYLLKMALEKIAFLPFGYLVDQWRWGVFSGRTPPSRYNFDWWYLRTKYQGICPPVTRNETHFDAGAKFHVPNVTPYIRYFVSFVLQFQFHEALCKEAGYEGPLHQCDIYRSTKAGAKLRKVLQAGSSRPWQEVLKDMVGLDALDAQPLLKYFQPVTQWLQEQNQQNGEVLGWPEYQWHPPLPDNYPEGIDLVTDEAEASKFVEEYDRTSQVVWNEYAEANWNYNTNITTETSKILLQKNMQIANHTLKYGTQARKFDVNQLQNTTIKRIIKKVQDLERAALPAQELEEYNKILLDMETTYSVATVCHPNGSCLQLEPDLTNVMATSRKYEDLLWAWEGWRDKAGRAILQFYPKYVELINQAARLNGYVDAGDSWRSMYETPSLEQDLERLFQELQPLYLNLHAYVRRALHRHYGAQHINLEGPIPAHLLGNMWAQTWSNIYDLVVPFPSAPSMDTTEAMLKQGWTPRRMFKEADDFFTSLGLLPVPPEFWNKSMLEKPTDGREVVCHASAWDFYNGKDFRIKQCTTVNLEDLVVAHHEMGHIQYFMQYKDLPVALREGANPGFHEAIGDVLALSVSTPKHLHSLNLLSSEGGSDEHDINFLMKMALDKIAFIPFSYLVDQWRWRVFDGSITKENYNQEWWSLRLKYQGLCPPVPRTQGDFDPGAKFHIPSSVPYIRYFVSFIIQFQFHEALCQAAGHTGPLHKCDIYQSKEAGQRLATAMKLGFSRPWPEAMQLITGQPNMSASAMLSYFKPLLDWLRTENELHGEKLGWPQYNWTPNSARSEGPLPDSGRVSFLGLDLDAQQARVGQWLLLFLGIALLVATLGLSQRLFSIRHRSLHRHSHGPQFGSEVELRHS
Protocol: as §1, with “2A-4D” for “3A-5D”, “angiotensin converting enzyme (ACE)” for “dipeptidyl peptidase III (DPE III)”, “ACE” for “DPE III”
Analogs with ACCA at position 5 (Ang-(1-7)-ACCA^5), position 6 (Ang-(1-7)-ACCA^6), and position 3 (Ang-(1-7)-ACCA^3) were assessed to determine whether the analogs were degraded by ACE. Ang-(1-7) served as the control. Specifically, 100 μM of one of the three analogs or Ang-(1-7) was incubated with 1.0 μg of human ACE in reaction buffer (25 mM Hepes, 125 mM NaCl, 10 μM ZnCl2, pH 7.4) for 2 hours at 37° C. in a final volume of 100 μL. The resultant reaction products were separated by high pressure liquid chromatography (HPLC) on a Phenomenex Aeris Peptide C18 column using a Shimadzu Prominence system and detected by UV analysis at 220 nm.

CC[C@H](C)[C@H](NC(=O)[C@H](Cc1ccc(O)cc1)NC(=O)[C@@H](NC(=O)[C@H](CCCNC(=N)N)NC(=O)[C@@H](N)CC(=O)O)C(C)C)C(=O)N[C@@H](Cc1c[nH]cn1)C(=O)N1CCC[C@H]1C(=O)O [Ang-(1-7), Asp-Arg-Val-Tyr-Ile-His-Pro]
half-life in plasma [1]: 30 min
degradation / resistance to metabolism by DPP III (Human DPP III): sequentially degraded; also recorded: readily degraded
degradation / resistance to metabolism by ACE (human ACE): degraded to Ang-(1-5) and the dipeptide His-Pro; also recorded: readily degraded
